Laboratory results taken from PubChem BioAssay AID256 (DTP/NCI, 2004).
Toxic doses and inconclusive results are not listed. Rule for the calls: active = survival T/C of 150% or more; inactive = T/C below 125% in these data.

Test system: CD2F1 mice, L1210 leukemia ip, survival T/C
Test: NCI In Vivo Anticancer Drug Screen. Data for tumor model L1210 Leukemia (intraperitoneal) in CD2F1 (CDF1) mice
Settings: higher = longer survival
Summary of the method: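 In this screen, transplantable tumors were grown in mice given either the compound or its vehicle. Results were expressed as the treated measurement relative to the control measurement.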

[1] = endpoint: mean survival time, dose: 100.0 mg/kg/injection, schedule: Q01DX009 (ip), vehicle: saline with Tween-80
[2] = endpoint: mean survival time, dose: 100.0 mg/kg/injection, schedule: Q04DX003 (ip), vehicle: saline with Tween-80
[3] = endpoint: mean survival time, dose: 200.0 mg/kg/injection, schedule: Q01DX009 (ip), vehicle: saline with Tween-80
[4] = endpoint: mean survival time, dose: 200.0 mg/kg/injection, schedule: Q04DX003 (ip), vehicle: saline with Tween-80
[5] = endpoint: mean survival time, dose: 400.0 mg/kg/injection, schedule: Q01DX009 (ip), vehicle: saline with Tween-80
[6] = endpoint: mean survival time, dose: 12.5 mg/kg/injection, schedule: Q01DX009 (ip), vehicle: saline with Tween-80
[7] = endpoint: mean survival time, dose: 25.0 mg/kg/injection, schedule: Q01DX009 (ip), vehicle: saline with Tween-80
[8] = endpoint: mean survival time, dose: 50.0 mg/kg/injection, schedule: Q01DX009 (ip), vehicle: saline with Tween-80
[9] = endpoint: mean survival time, dose: 100.0 mg/kg/injection, schedule: Q01DX001 (ip), vehicle: saline
[10] = endpoint: mean survival time, dose: 200.0 mg/kg/injection, schedule: Q01DX001 (ip), vehicle: saline
[11] = endpoint: mean survival time, dose: 400.0 mg/kg/injection, schedule: Q01DX001 (ip), vehicle: saline
[12] = endpoint: mean survival time, dose: 50.0 mg/kg/injection, schedule: Q01DX009 (ip), vehicle: saline
[13] = endpoint: mean survival time, dose: 100.0 mg/kg/injection, schedule: Q01DX009 (ip), vehicle: saline

Measured: T/C

Cc1ccc(C2(C(=O)O)CCCC2)cc1
inactive: [1] 96 % of control | [2] 97 % of control | [3] 97 % of control | [4] 98 % of control | [5] 90 % of control | endpoint: mean survival time, dose: 400.0 mg/kg/injection, schedule: Q04DX003 (ip), vehicle: saline with Tween-80 95 % of control

O=S(=O)(Cl)OC1C2COC(O2)C(OS(=O)(=O)Cl)C1OS(=O)(=O)Cl (stereo not drawn)
inactive: [6] 108 % of control | [7] 103 % of control | [8] 102 % of control

CCOC(=O)C1=C(C)NC(C)=C(C(=O)OCC)C1Cc1ccccc1
inactive: endpoint: mean survival time, dose: 100.0 mg/kg/injection, schedule: Q01DX009 (ip), vehicle: other 106 % of control | endpoint: mean survival time, dose: 200.0 mg/kg/injection, schedule: Q01DX009 (ip), vehicle: other 98 % of control | endpoint: mean survival time, dose: 400.0 mg/kg/injection, schedule: Q01DX009 (ip), vehicle: other 104 % of control

CN1CN(C2CCCCC2)CSC1=S
inactive: [9] 102 % of control | [1] 102 % of control | [10] 100 % of control | [3] 96 % of control | [11] 102 % of control | [5] 106 % of control

CN(C)CCP(=O)(O)O
inactive: endpoint: mean survival time, dose: 100.0 mg/kg/injection, schedule: Q04DX003 (ip), vehicle: saline 101 % of control | endpoint: mean survival time, dose: 200.0 mg/kg/injection, schedule: Q04DX003 (ip), vehicle: saline 98 % of control | endpoint: mean survival time, dose: 400.0 mg/kg/injection, schedule: Q04DX003 (ip), vehicle: saline 98 % of control

CCOC(=O)c1cc(-c2ccc(Cl)cc2)nc2c1ccc1ccccc12
inactive: [9] 100 % of control | [10] 96 % of control | [11] 108 % of control

Cc1ccc(S(=O)(=O)NC(=O)C2C(=O)CC3(CCCCC3)CC2=O)cc1
inactive: endpoint: median survival time, dose: 50.0 mg/kg/injection, schedule: Q01DX009 (ip), vehicle: Klucel (hydroxypropylcellulose) (HPC) 100 % of control | endpoint: median survival time, dose: 100.0 mg/kg/injection, schedule: Q01DX009 (ip), vehicle: Klucel (hydroxypropylcellulose) (HPC) 102 % of control

Cc1c(O)c(Br)c(C)c(O)c1Br (tested in a mixture with another compound)
inactive: [9] 98 % of control | [10] 101 % of control

S=C(NNc1ccccc1)NC1CCCCC1
inactive: endpoint: mean survival time, dose: 25.0 mg/kg/injection, schedule: Q01DX009 (ip), vehicle: acetone 96 % of control | endpoint: mean survival time, dose: 50.0 mg/kg/injection, schedule: Q01DX009 (ip), vehicle: acetone 100 % of control | endpoint: mean survival time, dose: 100.0 mg/kg/injection, schedule: Q01DX009 (ip), vehicle: acetone 96 % of control

CN(C)CN1C(=O)S/C(=C2\C(=O)N(CN(C)C)c3ccccc32)C1=O
inactive: endpoint: median survival time, dose: 50.0 mg/kg/injection, schedule: Q01DX005 (ip), vehicle: Klucel (hydroxypropylcellulose) (HPC) 100 % of control | endpoint: median survival time, dose: 100.0 mg/kg/injection, schedule: Q01DX005 (ip), vehicle: Klucel (hydroxypropylcellulose) (HPC) 98 % of control | endpoint: median survival time, dose: 200.0 mg/kg/injection, schedule: Q01DX005 (ip), vehicle: Klucel (hydroxypropylcellulose) (HPC) 101 % of control

O=[N+]([O-])c1ccc2c(c1)C(=Nc1ccc3ccccc3c1)c1ccccc1-2
inactive: [2] 98 % of control | [4] 86 % of control

COP(=O)(CC1CO1)OC (stereo not drawn)
inactive: [12] 103 % of control | [13] 106 % of control | endpoint: mean survival time, dose: 200.0 mg/kg/injection, schedule: Q01DX009 (ip), vehicle: saline 98 % of control

CCCCCCCCC/C=C(/CC(=O)O)C(=O)O
inactive: [7] 92 % of control | [8] 96 % of control | [1] 102 % of control

Cc1ccc(S(=O)(=O)OCC2OC(n3cnc4c(NC=O)ncnc43)C(OC=O)C2OC=O)cc1 (stereo not drawn)
inactive: endpoint: mean survival time, dose: 25.0 mg/kg/injection, schedule: Q01DX009 (ip), vehicle: saline 104 % of control | [12] 102 % of control | [13] 98 % of control

Cc1cccc(NC(=O)c2ccccc2)n1
inactive: [6] 97 % of control | [7] 101 % of control | [8] 103 % of control
